Measurements from paper PMC8245773, “Brevibacillin 2V, a Novel Antimicrobial Lipopeptide With an Exceptionally Low Hemolytic Activity” (Frontiers in Microbiology, 2021).
*1 amine or outer side, *2 acyl side, *3 side chain or, on linkers, in order; H or OH if unused. Where a SMILES comes first, the peptide text is derived from it. [ ]: non-standard residue; d: D form. The star is where a group is joined. X2 = CC=C(N[*:1])C(=O)[*:2]; dOrn = NCCC[C@@H](N)C(=O)O; Valol = CC(C)[C@@H](CO)N*; X1 = CCC(C)C(O)C(=O)*

Assays:
[1] = tested on: E. coli ATCC 25922; test: Synergy assay, checkerboard method; settings: for FICI: synergistic ≤0.5; for MIC of antibiotic at brevibacillin 0 mg/L / MIC of antibiotic at brevibacillin 2V 0 mg/L / MIC of antibiotic at brevibacillin I 0 mg/L / MIC of antibiotic at brevibacillin V 0 mg/L: checkerboard, 5 × 10^5 cfu/ml, 37°C, 20 h, antibiotic alone;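 for all read-outs here: growth read as OD600 in microplates, with antibiotics tested across twofold serial dilutions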
Description: (§2) Briefly, antibiotics were diluted in twofold series, while brevibacillins were added at a certain final concentration of 1, 2, or 4 mg/L. Indicator strains were added at a final concentration of 5 × 10^5 cfu/ml. After incubation at 37°C for 20 h, the OD600 of plates was determined. The fractional inhibitory concentration index (FICI) was calculated using the following formula: FICI = (MIC compound A in combination with B / MIC compound A) + (MIC compound B in combination with A / MIC compound B).

[2] = tested on: A. baumannii ATCC17978; test: Synergy assay, checkerboard method; settings: for FICI / MIC of antibiotic at brevibacillin 0 mg/L / MIC of antibiotic at brevibacillin 2V 0 mg/L / MIC of antibiotic at brevibacillin I 0 mg/L / MIC of antibiotic at brevibacillin V 0 mg/L: A. baumannii ATCC17978; for FICI: synergistic ≤0.5; for MIC of antibiotic at brevibacillin 0 mg/L / MIC of antibiotic at brevibacillin 2V 0 mg/L / MIC of antibiotic at brevibacillin I 0 mg/L / MIC of antibiotic at brevibacillin V 0 mg/L: checkerboard, 5 × 10^5 cfu/ml, 37°C, 20 h, antibiotic alone
Description: as §2

[3] = tested on: P. aeruginosa LMG6395; test: Synergy assay, checkerboard method; settings: for FICI: synergistic ≤0.5; for MIC of antibiotic at brevibacillin 0 mg/L / MIC of antibiotic at brevibacillin 2V 0 mg/L / MIC of antibiotic at brevibacillin I 0 mg/L / MIC of antibiotic at brevibacillin V 0 mg/L: checkerboard, 5 × 10^5 cfu/ml, 37°C, 20 h, antibiotic alone;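 for all read-outs here: antibiotics tested in twofold serial dilutions, with inhibition judged from plate OD600 readings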
Description: as §2

[4] = tested on: K. pneumoniae LMG20218; test: Synergy assay, checkerboard method; settings: for FICI: synergistic ≤0.5; for MIC of antibiotic at brevibacillin 0 mg/L / MIC of antibiotic at brevibacillin 2V 0 mg/L / MIC of antibiotic at brevibacillin I 0 mg/L / MIC of antibiotic at brevibacillin V 0 mg/L: checkerboard, 5 × 10^5 cfu/ml, 37°C, 20 h, antibiotic alone
Description: as §2

[5] = tested on: human erythrocytes; test: Hemolytic activity
Description: This assay was performed as per the method described in previous studies ([Ling et al., 2015]; [Li et al., 2018]). Briefly, erythrocytes were isolated from a healthy human volunteer donor (ordered from Sanquin, Netherlands^1) and washed with phosphate-buffered saline (PBS) three times. After that, peptides were added at final concentrations of 128, 64, 32, 16, 8, 4, 2, 1, and 0 mg/L in PBS containing 2% (v/v) erythrocytes. The cells were incubated at 37°C for 1 h and centrifuged for 5 min at 8,000 g. The supernatant was transferred to a 96-well plate, and the absorbance was measured at a wavelength of 450 nm with a Thermo Scientific Varioskan^TM LUX multimode microplate reader. The absorbance relative to the positive control, which was treated with 10% Triton X-100, was defined as the percentage of hemolysis. The 50% human blood cell hemolysis concentration (HC50) of peptides was calculated as described in previous studies ([Reed and Muench, 1938]).
(§1) GraphPad Prism 7.0 was used to fit the data of hemolytic assay and cytotoxicity assay in Figure 3. The experiments were conducted in triplicate, and data are presented as the mean value of triplicate experiments. Data Explorer Software was used to analyze the MALDI-TOF data; Thermo Scientific Xcalibur software was used to analyze the LC–MS/MS data. The statistical significance of the data was assessed using Duncan’s multiple-range test with the software SPSS Statistics 19.0. P-values less than 0.05 were considered to be statistically significant.

[6] = tested on: HepG2 cells
Description: The cytotoxicity of brevibacillins was evaluated on HepG2 cells by using the XTT (Cell Proliferation Kit XTT, AppliChem) assay ([Roehm et al., 1991]). HepG2 cells [in Dulbecco’s modified Eagle’s medium (DMEM) supplemented with 10% fetal bovine serum] were seeded into 96-well plates and incubated at 37°C with 5% CO2. After 24 h, the medium was replaced with a fresh medium (DMEM with 2% FBS, 100 μl per well) containing different concentrations of brevibacillins ([Zhao et al., 2017]). After 24 h of incubation, the XTT reagent was added to the cultures according to the manufacturer’s instructions, and the plates were incubated at 37°C for 2 h with 5% CO2. Subsequently, the absorbance values were measured by using a Varioskan^TM LUX multimode microplate reader (Thermo Fisher Scientific) at 485 nm (reference, 690 nm). The 50% cell toxicity (CC50) of peptides was calculated as described in a previous study ([Reed and Muench, 1938]).
as §1

[7] = antibiotic + brevibacillin 2V, E. coli ATCC 25922
[8] = antibiotic + brevibacillin I, E.coli ATCC 25922
[9] = antibiotic + brevibacillin V, E.coli ATCC 25922
[10] = antibiotic + brevibacillin, E.coli ATCC 25922

Row | Structure (SMILES) | FICI [1, 7] | FICI [1, 8] | FICI [1, 9] | FICI [1, 10] | MIC of antibiotic at brevibacillin 0 mg/L ([1]; E.coli ATCC 25922) | MIC of antibiotic at brevibacillin 2V 0 mg/L ([1]; E.coli ATCC 25922) | MIC of antibiotic at brevibacillin I 0 mg/L ([1]; E.coli ATCC 25922) | MIC of antibiotic at brevibacillin V 0 mg/L ([1]; E.coli ATCC 25922) | FICI ([2]; antibiotic + brevibacillin 2V) | FICI ([2]; antibiotic + brevibacillin I) | FICI ([2]; antibiotic + brevibacillin V) | FICI ([2]; antibiotic + brevibacillin) | MIC of antibiotic at brevibacillin 0 mg/L [2] | MIC of antibiotic at brevibacillin 2V 0 mg/L [2] | MIC of antibiotic at brevibacillin I 0 mg/L [2] | MIC of antibiotic at brevibacillin V 0 mg/L [2] | FICI ([3]; antibiotic + brevibacillin 2V) | FICI ([3]; antibiotic + brevibacillin I) | FICI ([3]; antibiotic + brevibacillin V) | FICI ([3]; antibiotic + brevibacillin) | further results
1 | NCC[C@H](O)C(=O)N[C@@H]1C[C@H](N)[C@@H](O[C@H]2O[C@H](CN)[C@@H](O)[C@H](O)[C@H]2O)[C@H](O)[C@H]1O[C@H]1O[C@H](CO)[C@@H](O)[C@H](N)[C@H]1O [Amikacin] | 0.188 | 0.281 | 0.250 | 0.156 | 4 µg/mL | 4 µg/mL | 4 µg/mL | 4 µg/mL | 0.141 | 0.078 | 0.094 | 0.094 | 16 µg/mL | 16 µg/mL | 16 µg/mL | 16 µg/mL | 0.266 | 0.266 | 0.266 | 0.266 | decrease of MIC of amikacin against A. baumannii ([2]; in the presence of 4 mg/L brevibacillins): 32–64 folds; MIC of antibiotic at brevibacillin 0 mg/L [3]: 2 µg/mL; MIC of antibiotic at brevibacillin 2V 0 mg/L [3]: 2 µg/mL; MIC of antibiotic at brevibacillin I 0 mg/L [3]: 2 µg/mL; MIC of antibiotic at brevibacillin V 0 mg/L [3]: 2 µg/mL; FICI ([4]; antibiotic + brevibacillin 2V): 0.563; FICI ([4]; antibiotic + brevibacillin I): 0.563; FICI ([4]; antibiotic + brevibacillin V): 1.016; FICI ([4]; antibiotic + brevibacillin): 1.031; MIC of antibiotic at brevibacillin 0 mg/L [4]: 0.5 µg/mL; MIC of antibiotic at brevibacillin 2V 0 mg/L [4]: 0.5 µg/mL; MIC of antibiotic at brevibacillin I 0 mg/L [4]: 0.5 µg/mL; MIC of antibiotic at brevibacillin V 0 mg/L [4]: 0.5 µg/mL
2 | CC=C(NC(=O)C(O)C(C)CC)C(=O)N[C@@H](CC(C)C)C(=O)N[C@H](CCCN)C(=O)N[C@H](C(=O)N[C@H](C(=O)N[C@H](C(=O)N[C@H](CCCCN)C(=O)N[C@H](C(=O)N[C@H](C(=O)N[C@@H](CCCCN)C(=O)N[C@H](Cc1ccc(O)cc1)C(=O)N[C@@H](CC(C)C)C(=O)N[C@H](CO)C(C)C)C(C)C)C(C)C)C(C)C)[C@@H](C)CC)[C@@H](C)CC (stereo partly drawn) [brevibacillin] (X1-[X2]L[dOrn]IIV[dK]VVK[dY]L-Valol) |  |  |  |  |  |  |  |  |  |  |  |  |  |  |  |  |  |  |  |  | hemolytic activity at 64 mg/L [5]: completely lysed; HC50 (concentration that causes 50% hemolysis of human red blood cells) ([5]; red cells of human, 1 h): 25.1 ± 0.1 mg/L; CC50 (HepG2) relative to MIC values against bacterial pathogens [6]: 2.5- to fivefold; cytotoxicity to HepG2 cells at 16 mg/L [6]: all of the HepG2 cells were killed; HepG2 CC50 ([6]; 24 h): 5.21 ± 0.01 µg/mL
3 | CCn1cc(C(=O)O)c(=O)c2ccc(C)nc21 [Nalidixic acid] | 0.313 | 0.313 | 0.375 | 0.375 | 2 µg/mL | 2 µg/mL | 2 µg/mL | 2 µg/mL | 0.531 | 0.516 | 1.016 | 0.625 | 32 µg/mL | 32 µg/mL | 32 µg/mL | 32 µg/mL | 0.266 | 0.266 | 0.516 | 0.516 | MIC of antibiotic at brevibacillin 0 mg/L [3]: 256 µg/mL; MIC of antibiotic at brevibacillin 2V 0 mg/L [3]: 256 µg/mL; MIC of antibiotic at brevibacillin I 0 mg/L [3]: 256 µg/mL; MIC of antibiotic at brevibacillin V 0 mg/L [3]: 256 µg/mL; FICI ([4]; antibiotic + brevibacillin 2V): 0.531; FICI ([4]; antibiotic + brevibacillin I): 0.516; FICI ([4]; antibiotic + brevibacillin V): 1.016; FICI ([4]; antibiotic + brevibacillin): 0.563; MIC of antibiotic at brevibacillin 0 mg/L [4]: 32 µg/mL; MIC of antibiotic at brevibacillin 2V 0 mg/L [4]: 32 µg/mL; MIC of antibiotic at brevibacillin I 0 mg/L [4]: 32 µg/mL; MIC of antibiotic at brevibacillin V 0 mg/L [4]: 32 µg/mL
